# Experimental data reported in paper PMC5589090 (PLoS Medicine, 2017).
# Values joined by “and” are separate entries in the source; they are usually repeats but may differ in a detail not shown here. Identical values can stand only once. Like-named read-outs stand apart in the source and are kept apart here.
# Key:
# [1] = cited from earlier work
# [2] = tested on: malignant tumor formation; design: method as in Berger MR. Proc Am Ass Cancer Res 1997;38:599; details: 6mg/kg of decitabine; controls 30-40%; ref Berger MR. Proc Am Ass Cancer Res 1997;38:599; cited from earlier work
# [3] = Decitabine plasma pharmacokinetics by LCMS/MS after first oral THU-decitabine dose; format: in vivo, human; details: for Cmax: first dose
# Experimental: Blood samples were drawn over a period of less than 1 minute into tubes pre-loaded with heparin and THU 10 μg/ml (to prevent in vitro metabolism by CDA) and immediately transferred onto ice. Samples were then centrifuged as soon as possible at 600 g for 5 minutes at 4°C. […] Pharmacokinetic data were analyzed using non-compartmental methods or a 2-compartment model with instantaneous/intravenous input using the R package PKLMfit. […] The AUClast (the area under the curve from the time of dosing to the last measurable concentration) was calculated by the linear trapezoidal method.
# Samples will be processed immediately by centrifugation at 3000 × g for 5 min in a refrigerated centrifuge. […] To increase stability, tetrahydrouridine (THU), a cytidine deaminase inhibitor, will be added to the plasma supernatant at a final concentration of 100 μM immediately after centrifugation. Plasma (300 μL) will be then aliquoted into two tubes with the remaining plasma in a third tube. The plasma will be immediately frozen at −80 °C until analysis. All samples will be sent to Jiang Wang, PhASR at The Ohio State University for processing (appendix B).
# The chromatographic separation will be performed on a 250 mm × 2.0 mm i.d., 4.0 μm, C18 column (YMC Co. Ltd., Kyoto, Japan) and a 20 mm × 2.1 mm i.d., 3.5 μm, C18 guard column (Waters Xterra RP18, Waters Corporation, Milford, MA, USA) kept at room temperature. The mobile phase used for chromatographic separation will be composed of 2 mM ammonium acetate containing 0.1% formic acid and methanol, and is delivered using a gradient flow. The mass spectrometer is equipped with an electrospray interface, which will be operated in a positive mode, and controlled by the completely validated Masslynx software (Waters Corporation, Milford, MA, USA). […] The analytical method is currently under development and validation according to the ICH Guideline (ICH Harmonized Tripartite Guideline. Validation of Analytical Procedures: Text and Methodology. Q2(R1). Incorporated in November, 2005) in the laboratory of Dr. Lyubimov (Toxicology Research Laboratory, TRL). Method specificity, linearity, range, accuracy, precision and detection limit will be established and validated. In addition, short-term, long-term and freezing/towing stability will be determined. All sample collection, handling and analysis procedures will be performed according to GLP and GCP requirements. All data and the report will be audited by the Quality Assurance Officer at TRL.
# PK analysis: PK analysis will be performed using the Winnonlin software (version 5.0.1, Pharsight NC) and will include the determination of maximum plasma concentration (Cmax), time to maximum plasma concentration (Tmax), area under the plasma concentration-versus-time curve from time zero to last measurable plasma concentration (AUC0-t). The terminal rate constant ( [picture] z) will be determined from the slope of the terminal phase of the plasma concentration-time curve using uniform weight. The terminal half-life (T1/2) will be calculated as 0.693 divided by [picture] z. Area under the concentration-time curve (AUC) will be calculated using the log/linear trapezoidal rule. The AUC will be extrapolated to infinity (AUC0– [picture] ) by using the equation, AUC0– [picture] = AUC0–t + Clast/ [picture] z, where Clast will be the final quantifiable concentration.
# [4] = design: method as in ref 99 (a number printed in a supplementary file, which may have a reference list of its own: not looked up in the article's list); details: cited from earlier work
# [5] = human starting dose 0.01 mg/kg
# Experimental: To ensure safety in case of this possibility, decitabine pharmacokinetics are measured after single dose oral administration of decitabine and THU.
# [6] = cited from earlier work; remark: listed apart in the source
# 8 melanoma cell lines = tested on: 8 melanoma cell lines; design: method as in ref 21 (a number printed in a supplementary file, which may have a reference list of its own: not looked up in the article's list); details: two daily treatments 0.2 µM; cited from earlier work
# [7] = tested on: normal CD34+ hematopoietic stem and progenitor cells; details: cited from earlier work
# lung tumor = tested on: lung tumor; design: method as in ref 91 (a number printed in a supplementary file, which may have a reference list of its own: not looked up in the article's list); details: cited from earlier work
# [8] = Table B1, baseline before treatment, per subject, r10 Mean ±SD
# [9] = Table B1, last 20 of 36 weeks of treatment, per subject, r10 Mean ±SD
# [10] = per patient, SC 0.2 mg/kg 2x/week, 0.2 mg/kg
# [11] = two daily treatments 0.5 µM, ref Investigators Brochure
smiles,measurement,setting,value
"Nc1ncn([C@H]2C[C@H](O)[C@@H](CO)O2)c(=O)n1 [decitabine, 5-aza-2’-deoxycytidine]",cumulative hematologic or non-hematologic toxicities,"[1]; 36 weeks, seven subjects",No cumulative hematologic or non-hematologic toxicities
same,ANC nadir at optimal drug dose,"[1]; IV 0.3 mg/kg/day 5 days/week for 2 weeks, 6-week cycles",> 1500 cells/µL
same,HbF (%) Pre,[1]; [8],3.12 ± 2.75% and 0.8% and 6.8% and 1.4% and 0.6% and 2.9% and 6.2%
same,Total Hemoglobin Pre,[1]; [8],7.32 ± 0.94 g/dL and 6.2 g/dL and 8.2 g/dL and 6.0 g/dL and 7.2 g/dL and 8.0 g/dL and 7.8 g/dL
same,HbF (%) Avg,[1]; [9],13.93 ± 2.35% and 12.40 ± 1.25% and 14.55 ± 1.32% and 12.75 ± 2.28% and 10.80 ± 2.05% and 16.42 ± 2.81% and 16.70 ± 2.55%
same,HbF (%) Max,[1]; [9],18.35 ± 4.46% and 14.4% and 16.3% and 17.2% and 24.6% and 23.2%
same,Total Hemoglobin Avg,[1]; [9],8.81 ± 0.42 g/dL and 9.05 ± 0.48 g/dL and 9.37 ± 0.60 g/dL and 8.34 ± 0.55 g/dL and 8.28 ± 0.52 g/dL and 8.91 ± 0.57 g/dL and 8.92 ± 0.79 g/dL
same,Total Hemoglobin Max,[1]; [9],9.73 ± 0.53 g/dL and 9.6 g/dL and 10.3 g/dL and 9.5 g/dL and 9.0 g/dL and 10.4 g/dL
same,average HbF during the last twenty weeks of treatment,[1]; base-line […] ± 2.75%,13.93 ± 2.35%
same,average maximal HbF during the last twenty weeks of treatment,[1]; base-line […] ± 2.75%,18.35% ± 4.46%
same,"maximal F-cell numbers, average over all 7 subjects",[1],69 ± 10.12%
same,period of neutropenia,[1],1 to 3 days
same,average hemoglobin,"[1]; last 20 weeks, base-line of 7.23 ±2.35 g/dL",8.81 ± 0.42 g/dL
same,average ANC during the last 20 weeks of treatment,"[1]; pretreatment average 4600 ± 1560, in cells/µL (unit assumed)",4200 ± 1350
same,individual maximal F-cell numbers,[1]; range over subjects,58 - 87%
same,rate of malignant tumor formation,[2],74-94%
same,Cmax,"[3]; human, plasma, po, decitabine plasma concentration, Cmax, oral decitabine 0.08 mg/kg (cohort 4) 60 min after oral THU 10 mg/kg",9 to 21 nM
same,Cmax,"[3]; human, plasma, po, decitabine plasma concentration, Cmax, oral decitabine […] (cohort 5) 60 min after oral THU 10 mg/kg, at 2 hours",~50 nM
same,decitabine detected in the plasma,[3]; lowest oral decitabine dose level 0.01 mg/kg after oral THU 10 mg/kg,detected
same,decitabine Tmax,[3]; oral decitabine 60 minutes after THU 10 mg/kg,hours
same,Cmax,"[3]; read-out: decitabine plasma concentration, Cmax, oral decitabine […] (cohort 5) 60 min after oral THU 10 mg/kg, at 2 hours",39 to 54 nM
same,"testicular weight, sperm counts and fertility",[4],"dose-dependent decrease in testicular weight, decline in sperm counts and reduced fertility"
same,expected Cmax lower than Cmax […] with reversible toxicity in murine toxicology studies,[5],"3,920 fold"
same,"total hemoglobin (Hb), peak","[6]; SC 0.2 mg/kg 2x/week for 12 weeks, five patients, baseline 7.88 ± 0.88",9.04 ± 0.77 g/dL
same,Absolute Retic count B/L,"[6]; baseline, per patient",1.65e+11 L⁻¹ and 1.55e+11 L⁻¹ and 1.63e+11 L⁻¹ and 1.96e+11 L⁻¹ and 1.06e+11 L⁻¹
same,Annexin-V RBC B/L,"[6]; baseline, per patient",0% and 2% and 0.6% and 3.4% and 0.8%
same,EPO B/L,"[6]; baseline, per patient",197.8 mIU/ml and 25 mIU/ml and 241.4 mIU/ml and 186 mIU/ml and 86.6 mIU/ml
same,HbF B/L,"[6]; baseline, per patient",7 g/dL and 0.1 g/dL and 2.8 g/dL and 4.8 g/dL and 3.6 g/dL
same,Hemoglobin B/L,"[6]; baseline, per patient",8.8 g/dL and 10.7 g/dL and 6.1 g/dL and 7.8 g/dL and 6 g/dL
same,Indirect Bilirubin B/L,"[6]; baseline, per patient",25.7 µmol/L and 104.3 µmol/L and 89 µmol/L and 33 µmol/L and 20 µmol/L
same,Normochromic Normovolumetric Cells B/L,"[6]; baseline, per patient",36% and 67.4% and 65.4% and 63.9% and 61.2%
same,Serum LDH B/L,"[6]; baseline, per patient",893 U/L and 596 U/L and 458 U/L and 192 U/L and 258 U/L
same,"genotoxicity (erythrocyte micronucleus, VDJ recombination assay)",[6],without erythrocyte micronucleus or VDJ recombination assay evidence of genotoxicity
same,Increases in Hb achieved,[6]; in two of the five patients,≥ 1.5 g/dL
same,Absolute Retic count Nadir,[6]; [10],1.35e+11 L⁻¹ and 1.6e+11 L⁻¹ and 1.16e+11 L⁻¹ and 1.25e+11 L⁻¹ and 7.9e+10 L⁻¹
same,Absolute Retic count Wk 12,[6]; [10],1.35e+11 L⁻¹ and 1.6e+11 L⁻¹ and 1.16e+11 L⁻¹ and 1.45e+11 L⁻¹ and 7.9e+10 L⁻¹
same,Annexin-V RBC Nadir,[6]; [10],0% and 0.1% and 0.4%
same,Annexin-V RBC Wk 12,[6]; [10],0.5% and 0.7% and 0.1% and 2.6% and 1.1%
same,EPO Nadir,[6]; [10],117.2 mIU/ml and 17.1 mIU/ml and 131.4 mIU/ml and 180.7 mIU/ml and 71.5 mIU/ml
same,EPO Wk 12,[6]; [10],117.2 mIU/ml and 24.4 mIU/ml and 238.5 mIU/ml and 340.5 mIU/ml and 71.5 mIU/ml
same,HbF Peak,[6]; [10],7.5 g/dL and 0.7 g/dL and 3.5 g/dL and 5.6 g/dL and 4.1 g/dL
same,HbF Wk 12,[6]; [10],7.1 g/dL and 0.7 g/dL and 3.4 g/dL and 5.6 g/dL and 3.6 g/dL
same,Hemoglobin Peak,[6]; [10],9.4 g/dL and 11.8 g/dL and 7.7 g/dL and 8.7 g/dL and 7.6 g/dL
same,Hemoglobin Wk 12,[6]; [10],9.4 g/dL and 11.8 g/dL and 6.4 g/dL and 8.7 g/dL and 7.5 g/dL
same,Indirect Bilirubin Nadir,[6]; [10],27.4 µmol/L and 83.8 µmol/L and 48 µmol/L and 18 µmol/L and 8 µmol/L
same,Indirect Bilirubin Wk 12,[6]; [10],30.8 µmol/L and 83.8 µmol/L and 48 µmol/L and 33 µmol/L and 10 µmol/L
same,Neutrophil count Nadir,[6]; [10],2.82e+09 L⁻¹ and 2.2e+09 L⁻¹ and 5.2e+09 L⁻¹ and 2.1e+09 L⁻¹ and 4.5e+09 L⁻¹
same,Neutrophil count Wk 12,[6]; [10],4.62e+09 L⁻¹ and 2.2e+09 L⁻¹ and 7.9e+09 L⁻¹ and 1.03e+10 L⁻¹ and 5.7e+09 L⁻¹
same,Normochromic Normovolumetric Cells Peak,[6]; [10],45.9% and 70% and 70.9% and 72.4%
same,Normochromic Normovolumetric Cells Wk 12,[6]; [10],45.9% and 69% and 70.5% and 66.4% and 68.1%
same,Platelet count Peak,[6]; [10],2.96e+11 L⁻¹ and 1.038e+12 L⁻¹ and 1.265e+12 L⁻¹ and 8.01e+11 L⁻¹ and 1.301e+12 L⁻¹
same,Platelet count Wk 12,[6]; [10],2.81e+11 L⁻¹ and 1.038e+12 L⁻¹ and 1.265e+12 L⁻¹ and 7.56e+11 L⁻¹ and 1.301e+12 L⁻¹
same,Serum LDH Nadir,[6]; [10],660 U/L and 541 U/L and 260 U/L and 149 U/L and 204 U/L
same,Serum LDH Wk 12,[6]; [10],660 U/L and 556 U/L and 324 U/L and 167 U/L and 204 U/L
same,"DNA damage (H2AX, CHK1, p53 phosphorylation, BAX, GADD45, comet assay)",8 melanoma cell lines,did not cause DNA damage
same,level that causes measurable DNA damage and apoptosis/cytotoxicity,[7]; peak drug level,> 1000 nM
same,DNMT1 depletion,[7]; [11],substantially depleted DNMT1
same,"phospho-H2AX, DNA scission or apoptosis",[7]; [11],"did not increase phospho-H2AX, DNA scission or apoptosis"
same,reduction in tumor incidence,lung tumor,23%
same,reduction in tumor multiplicity,lung tumor,42%
